Experimental data from patent US9481648B2, “Kinase inhibitors” (Respivert Limited, priority 2013, dated 2016).
Like-named read-outs stand apart in the source and are kept apart here.

Tests used:
CYP3A4 = CYP3A4 (Homo sapiens (Human), UniProt P08684); test: CYP3A4 inhibition study; type: in vitro ADME; conditions: 15 μM
Protocol: Assessment of certain in vitro ADME (absorption, distribution, metabolism, and excretion) parameters for certain compounds of the invention was conducted by BioFocus (Saffron Walden, UK).

non-mutant kinases = type: binding; conditions: for KinomeScan Selectivity Score S(10): (number of non-mutant kinases with % Ctrl <10)/(number of non-mutant kinases tested); for KinomeScan Selectivity Score S(35): (number of non-mutant kinases with % Ctrl <35)/(number of non-mutant kinases tested); for number of individual kinase hits, S(1): non-mutant kinases with % Ctrl <1; for number of individual kinase hits, S(10): non-mutant kinases with % Ctrl <10; for number of individual kinase hits, S(35): non-mutant kinases with % Ctrl <35
Protocol: These assays may be conducted by DiscoverX (formerly Ambit; San Diego, Calif.). The percentage inhibition produced by incubation with a test compound may be calculated relative to the non-inhibited control.

[1] = Plasma pharmacokinetics in rats, single intravenous or oral administration; type: in vivo, rat (male Wistar); conditions: rats, oral 5 mg/kg; vehicle C (Example 4) or B
Protocol: Studies were conducted by Sai Life Sciences (Hinjewadi, Pune, India) to investigate the plasma pharmacokinetics and total colon tissue distribution of compounds of the invention. In particular, pharmacokinetic studies were carried out in: • male C57BL/6 mice, following a single oral administration; and • male Wistar rats following a single intravenous or oral administration.

B-Raf = B-Raf (Homo sapiens (Human), UniProt P15056); test: KINOMEscan binding of kinase to its standard ligand
Protocol: (§1) Kinase enzyme binding activities of compounds disclosed herein may be determined using a proprietary assay which measures active site-directed competition binding to an immobilized ligand (Fabian, M. A. et al., Nature Biotechnol., 2005, 23:329-336). These assays may be conducted by DiscoverX (formerly Ambit; San Diego, Calif.). The percentage inhibition produced by incubation with a test compound may be calculated relative to the non-inhibited control.

B-Raf (V600E) = B-Raf (V600E) (Homo sapiens (Human), UniProt P15056, V600E); test: as above
Protocol: as §1

CYP3A4, sequence (P08684 whole entry): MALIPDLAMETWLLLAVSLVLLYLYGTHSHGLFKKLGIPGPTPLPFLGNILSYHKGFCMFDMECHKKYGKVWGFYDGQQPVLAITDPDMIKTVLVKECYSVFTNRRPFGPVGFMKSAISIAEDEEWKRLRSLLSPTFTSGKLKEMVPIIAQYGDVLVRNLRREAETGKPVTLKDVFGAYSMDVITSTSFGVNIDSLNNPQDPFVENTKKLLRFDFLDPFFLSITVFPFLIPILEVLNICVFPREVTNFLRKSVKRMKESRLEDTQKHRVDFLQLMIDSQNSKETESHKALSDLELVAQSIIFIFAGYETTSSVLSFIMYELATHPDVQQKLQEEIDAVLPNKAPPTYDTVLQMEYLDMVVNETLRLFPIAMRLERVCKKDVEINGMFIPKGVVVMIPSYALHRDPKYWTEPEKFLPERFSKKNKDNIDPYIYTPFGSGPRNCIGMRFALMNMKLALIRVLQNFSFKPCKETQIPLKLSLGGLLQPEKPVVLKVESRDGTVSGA
B-Raf (V600E), sequence (P15056 whole entry V600E): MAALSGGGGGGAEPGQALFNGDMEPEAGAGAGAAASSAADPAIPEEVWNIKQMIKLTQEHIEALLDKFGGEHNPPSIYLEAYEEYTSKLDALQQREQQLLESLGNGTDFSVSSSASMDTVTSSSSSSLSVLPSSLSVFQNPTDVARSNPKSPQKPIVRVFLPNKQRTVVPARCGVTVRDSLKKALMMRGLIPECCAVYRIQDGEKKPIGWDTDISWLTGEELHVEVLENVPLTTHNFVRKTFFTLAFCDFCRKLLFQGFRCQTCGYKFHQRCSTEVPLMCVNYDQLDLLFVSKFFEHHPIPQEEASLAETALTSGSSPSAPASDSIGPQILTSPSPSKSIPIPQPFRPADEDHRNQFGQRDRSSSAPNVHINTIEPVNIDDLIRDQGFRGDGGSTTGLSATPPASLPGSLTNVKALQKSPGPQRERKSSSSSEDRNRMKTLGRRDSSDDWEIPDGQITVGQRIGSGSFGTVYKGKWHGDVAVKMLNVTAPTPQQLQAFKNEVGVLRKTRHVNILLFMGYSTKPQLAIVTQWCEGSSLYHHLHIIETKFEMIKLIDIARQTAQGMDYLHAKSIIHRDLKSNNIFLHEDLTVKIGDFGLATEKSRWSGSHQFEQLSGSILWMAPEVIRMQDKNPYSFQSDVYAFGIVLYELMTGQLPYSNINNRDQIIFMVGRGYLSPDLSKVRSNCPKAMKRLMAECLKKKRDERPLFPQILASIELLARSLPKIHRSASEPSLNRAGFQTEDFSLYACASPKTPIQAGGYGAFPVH
B-Raf, sequence (P15056 whole entry): as the sequence (P15056 whole entry V600E) above, with E600V counted along it

C#Cc1cc(Nc2nccc(Oc3ccc(NC(=O)Nc4cc(C(C)(C)C)cc(NS(C)(=O)=O)c4OC)c4ccccc34)n2)cc(C(=O)NCCOCCOCCOC)c1 [Example 16]
15 μM % Inh (CYP3A4; CYP3A4, 0 min preincubation): 31% | 15 μM % Inh (CYP3A4; CYP3A4, 30 min preincubation): 54% | KinomeScan Selectivity Score S(10) (non-mutant kinases; 50 nM): 0.023 | KinomeScan Selectivity Score S(35) (non-mutant kinases; 50 nM): 0.068 | number of individual kinase hits, S(1) (non-mutant kinases; 50 nM): 0 | number of individual kinase hits, S(10) (non-mutant kinases; 50 nM): 9 | number of individual kinase hits, S(35) (non-mutant kinases; 50 nM): 27 | KinomeScan Selectivity Score S(1) (non-mutant kinases; 500 nM, (number of non-mutant kinases with % Ctrl <1)/(number of non-mutant kinases tested)): 0.038 | KinomeScan Selectivity Score S(10) (non-mutant kinases; 500 nM): 0.129 | KinomeScan Selectivity Score S(35) (non-mutant kinases; 500 nM): 0.197 | number of individual kinase hits, S(1) (non-mutant kinases; 500 nM): 15 | number of individual kinase hits, S(10) (non-mutant kinases; 500 nM): 51 | number of individual kinase hits, S(35) (non-mutant kinases; 500 nM): 78 | selectivity compared to the Reference Compound (non-mutant kinases; as evidenced by lower selectivity scores): substantially improved selectivities | Fpo [1]: 0.0% | effect on the binding of the kinase B-Raf to its standard ligand (B-Raf): did not have any significant effect | effect on the binding of the kinase B-Raf (V600E) to its standard ligand (B-Raf (V600E)): did not have any significant effect
